Reference: patent US9504660B2, “Retinaldehyde mimetics and inhibitors of retinaldehyde dehydrogenase I in the treatment of disorders” (THE BRIGHAM AND WOMEN'S HOSPITAL, INC., priority 2012, dated 2016)

Tests used:
UCP-1 promoter = UCP-1 promoter luciferase reporter in undifferentiated 10T1/2 cells; format: cell-based, murine; settings: 24 h, increasing concentrations / 1 pM
Protocol: (§1) Cell lysates were harvested 48 h post transfection and luciferase activity quantified by standard luminometer assay and normalized to 3-galactosidase.

RAR = settings: ligand displacement assays, reference 37; cited from earlier work
RXR = assay: 9cisRA-induced Cyp26a1 expression in 10T1/2 cells; format: cell-based, murine; settings: data not shown
Protocol: (§2) C3H10T1/2, isolated human stromal-vascular cells and Aldh1a1^−/− MEFs were cultured and differentiated as previously described^8. Briefly, cells were grown to confluence in DMEM, 10% fetal bovine serum (FBS) and 1% penicillin/streptomycin followed by standard adipogenic induction (20 nM insulin, 1 nM T3, 0.5 mM isobutylmethylxanthine, […], 0.125 mM indomethacin) and stimulation with retinoids, retinoid antagonists or vehicle (DMSO) as indicated. After a 48 h induction phase, growth media was supplemented with insulin, T3, and indicated retinoids which were changed every other day up to day 6.
(§3) Total RNA was extracted (RNeasy, Qiagen, Hi[den, Germany), DNase-treated (Qiagen), and reverse-transcribed to cDNA. Gene expression, normalized to 36B4, was analyzed by quantitative real-time RT-PCR (Sybr Green, 96 well plates) using a MyiQ cycler (Bio-Rad, Hercules, Calif.). Primer sequences are available upon request.

UCP-1 [1] = assay: UCP-1 gene expression in 10T1/2 cells during adipogenic differentiation; format: cell-based, murine; settings: for effect on Rald-mediated UCP-1 expression: antagonist with Rald
Protocol: as §2, §3

UCP-1 [2] = assay: UCP-1 gene expression in Aldh1a1-/- mouse embryonic fibroblast (MEF)-derived adipocytes; format: cell-based; settings: stimulation 24 h, versus vehicle-treated cells
Protocol: (§4) Abdominal subcutaneous fat biopsies were obtained from a subject undergoing gastric bypass surgery who gave written informed consent. Fat biopsies were immediately washed with phosphate buffered saline (PBS), minced, and digested (1 mg/mi collagenase, 45 min, 37° C.) in DMEM containing 1% BSA. Digested tissues were filtered through sterile 150 µm nylon mesh and centrifuged (250 g, 5 min). The floating fractions containing adipocytes were discarded and they stromal-vascular fraction pellet was resuspended in erythrocyte lysis buffer (154 mM NH4CI, 10 mM KHCO3, 0.1 mM EDTA, 10 min) to remove red blood cells. The cells were further centrifuged at 500 g for 5 min, plated on a 24-well culture dish and grown, and differentiated to mature adipocytes as described below. MEFs were isolated from Aldh1a1^−/− embryos at embryonic day 14.5 using standard tech niques^43.
(§5) C3H10T1/2, isolated human stromal-vascular cells and Aldh1a1^−/− MEFs were cultured and differentiated as previously described^8. […]
(§6) Total RNA was extracted (RNeasy, Qiagen, Hi[den, Germany), DNase-treated (Qiagen), and reverse-transcribed to cDNA. Gene expression, normalized to 36B4, was analyzed by quantitative real-time RT-PCR (Sybr Green, 96 well plates) using a MyiQ cycler (Bio-Rad, Hercules, Calif.). […]

[3] = target: T1, RARa ligand binding domain (LBD) (Homo sapiens, UniProt P10276); assay: Cell-free TR-FRET assay, PGC-1a recruitment to RARa LBD; format: biochemical
T1 construct: purchased Invitrogen
T1 sequence (P10276 183-417 limits assumed): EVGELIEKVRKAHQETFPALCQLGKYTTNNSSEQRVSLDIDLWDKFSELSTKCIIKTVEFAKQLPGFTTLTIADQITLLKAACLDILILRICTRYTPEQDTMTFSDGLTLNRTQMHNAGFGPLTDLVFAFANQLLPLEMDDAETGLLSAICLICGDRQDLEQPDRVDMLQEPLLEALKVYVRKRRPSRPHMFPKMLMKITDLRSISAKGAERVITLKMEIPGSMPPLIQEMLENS
Protocol: Lanthascreen” TR-FRET RARa and RXR13 coactivator assays (Invitrogen) were performed as per manufacturer protocol using a PerkinElmer (Waltham, Mass.) EnVision™ fluorescence plate reader.

[4] = test system: retinoic acid response element (RARE) luciferase reporter; assay: RARE luciferase reporter in undifferentiated 10T1/2 cells; format: cell-based, murine; settings: 24 h, concentration-dependent
Protocol: as §1

UCP-1 promoter region = assay: Chromatin immunoprecipitation (ChIP) at the UCP-1 promoter region in 10T1/2 cells; format: cell-based, mouse
Protocol: ChIP was performed in Rald versus vehicle stimulated C3H10T1/2 adipocytes using EZ-Magna ChIP™ kit following manufacturer's instructions (Millipore, Billerica, Mass.) and RARa, PGC-1a, or rabbit lgG antibodies as a negative control (all Santa Cruz). lmmunoprecipitated DNA was amplified by real-time PCR using primers specific for the mouse UCP-1 promoter region. Relative PGC-la and RARa occupancy at the UCP-1 promoter was determined normalized to input DNA

3T3-L1 cells = settings: reference 16; cited from earlier work
[5] = test system: RXRa ligand binding domain (LBD); assay: Cell-free TR-FRET assay, PGC-1a recruitment to RXRa LBD; format: biochemical
UCP-1 [6] = assay: UCP-1 expression in differentiating human stromal-vascular cells from subcutaneous fat biopsies; format: cell-based; settings: 1 pM during differentiation
Protocol: as §4, §5, §6

UCP-1 [7] = assay: UCP-1 mRNA in shAldh1a1-transfected 10T1/2 cells; format: cell-based, murine; settings: Rald stimulation (1 pM) in shAldh1a1-treated 10T1/2 cells
Protocol: as §2
Mission® shRNA constructs targeting Aldh1a1 and a non-targeting control shRNA were purchased from Sigma. To generate lentivirus particles, shRNA constructs were transfected into HEK293TN cells (SA Biosciences, Frederick, Md.) along with the packaging vectors psPAX and pM2DG. After 72 h, virus-containing supernatant was precipitated using polyethylene glycol (SA Biosciences) and concentrated in PBS (30×). […]
as §6

[8] = Glucose and insulin tolerance tests in high-fat diet fed obese mice; format: in vivo; settings: HFD obese mice, compared to control ASO
Protocol: (§7) An ASO targeting murine Aldh1a1 and a control ASO not hybridizing to any known murine RNA sequences were synthesized and purified by Isis Pharmaceuticals Inc. (Carlsbad, Calif.) as described previously^39. In vitro characterization including knockdown validation of the Aldh1a1 ASO was done in murine primary hepatocytes. ASOs (70 mg/kg/wk) were administered via intraperitoneal (i.p.) injection twice weekly.
Glucose (GTT) and insulin tolerance tests (ITT) were performed on mice after fasting (12 h and 6 h, respectively). Mice were injected i.p. either with D-glucose (Sigma, 0.75 g/kg body weight) or recombinant human regular insulin (0.5 U/kg body weight, Humulin R, Eli Lilly, Indianapolis, Ind.); blood glucose concentrations were measured periodically up to 120 min by glucometer (Abbott Laboratories, Abbott Park, Ill.).

Aldh1a1 = Aldh1a1 expression in tissues of ASO-treated C57Bl/6J mice; format: in vivo
Protocol: (§8) Aldh1a1-deficient (Aldh1a1^4″) mice were backcrossed to a C57BL/6J background (>20 generations). Mice were kept on a standard chow diet with a Vitamin A content of 15 IU/g or on high-fat diet (60% kcal fat, Research Diets, New Brunswick, N.J.) as indicated. Mice had free access to food and water except as indicated under Harvard Medical School Institutional Animal Care and Use Committee guidelines. Experiments were conducted using 12-14 week old female mice unless otherwise indicated.
as §7, §3
Homogenized tissue was lysed in RIPA buffer (Boston Bioproducts, Ashland, Mass.) containing protease and phosphatase inhibitors. Standard Western blotting was performed using rabbit polyclonal antibody against UCP-1, rabbit monoclonal antibody against Aldh1a1 (both Abcam, Cambridge, UK), GAPDH and f3-Tubulin (both Santa Cruz Biotechnology). Proteins were detected by chemiluminescence (GE HealthCare Amersham, Amersham, UK).

[9] = Established diet-induced obesity in high-fat diet fed C57Bl/6J mice, body weight and fat depot mass; format: in vivo; settings: HFD 8 weeks before treatment, continued HFD additional 9 weeks, compared to control ASO
Protocol: as §8, §7

[10] = Core body temperature under ambient and cold-induced conditions in ASO-treated mice; format: in vivo; settings: versus Ctrl ASO-treated mice
Protocol: as §7
Core body temperature was assessed in mice as before^49,41. WT and Aldh1a1^−/− mice (12 week old, n=6/group) were anesthetized (Ketamine/Xylazine/Acepromazine, 100/10/3 mg/kg i.p.) and a telemetric temperature probe (E-mitter, MiniMitter, Bend, Oreg.) was implanted intra-abdominally. One week after surgery, mice were single-housed in open-circuit Oxymax chambers as part of the Comprehensive Lab Animal Monitoring System (CLAMS; Columbus Instruments, Columbus, Ohio)^42. Oxymax chambers were kept in a temperature enclosure with 12 h light/dark cycles at 23° C. and mice had ad-libitum access to food and water. After a 48 h acclimatization phase, core body temperature was recorded every 10 min for 48 h at ambient temperature (23° C.), followed by 48 h cold stimulation (4° C.). After sacrifice, fat depots were dissected and analyzed.

UCP-1 [11] = assay: UCP-1 expression in fat depots of ASO-treated C57Bl/6J mice; format: in vivo; settings: chow-fed mice, i.p. 35 mg/kg/dose twice a week for 6 weeks
Protocol: as §8, §7, §6
Homogenized tissue was lysed in RIPA buffer (Boston Bioproducts, Ashland, Mass.) containing protease and phosphatase inhibitors. […] Proteins were detected by chemiluminescence (GE HealthCare Amersham, Amersham, UK).

[12] = each 1 pM, differentiating 10T1/2 cells
[13] = 1 pM during adipogenic differentiation
[14] = chow-fed mice, i.p. 35 mg/kg/dose twice a week for 6 weeks, compared to Ctrl ASO

CC1=C(/C=C/C(C)=C/C=C/C(C)=C/CO)C(C)(C)CCC1 [retinol]
UCP-1 promoter luciferase activity (UCP-1 promoter): not and failed to induce | binding to RAR (RAR): can bind

CN1c2ccc([N+](=O)[O-])cc2N=C(c2ccc(C(=O)O)cc2)c2cc3c(cc21)C(C)(C)CCC3(C)C [HX531, reference compound]
9cisRA-induced expression of the RA target gene Cyp26a1 (RXR): significantly inhibit | effect on Rald-mediated UCP-1 expression (UCP-1 [1]; [12]): did not alter

CC1=C(/C=C/C(C)=C/C=C/C(C)=C/C=O)C(C)(C)CCC1 [Rald, all trans-Retinal]
UCP-1 promoter luciferase activity (UCP-1 promoter): increased | UCP-1 gene expression increase (UCP-1 [2]): 40 fold | EC50 [3]: 0.082 µM | PGC-1a recruitment to RARa [3]: effectively recruited | activity of a canonical RARE luciferase reporter [4]: significantly increased | PGC-1a occupancy at the UCP-1 promoter region, enrichment (UCP-1 promoter region; Rald 1 pM during adipocyte differentiation): 5 fold | RARa signal at the UCP-1 promoter (UCP-1 promoter region; after stimulation, versus basal conditions): did not increase further | binding to RAR (RAR): can bind | adipogenesis in 3T3-L1 cells (3T3-L1 cells): inhibitor | PGC-1a recruitment to RXRa [5]: virtually no effect | expression of other BAT markers including PGC-16, PRDM16, and Cidea (UCP-1 [1]; [13]): induced | expression of the adipogenic gene aP2 (UCP-1 [1]; [13]): remained unaltered | UCP-1 expression induction (UCP-1 [1]; 1 pM during adipogenic differentiation of 10T1/2 cells (white adipocytes)): 100 fold | UCP-1 expression (UCP-1 [1]; co-stimulation with the Aldh inhibitor DEAB, each 1 pM, differentiating 10T1/2 cells): to the same extent as Rald alone | UCP-1 expression (UCP-1 [6]): significantly increased | UCP-1 mRNA expression increase (UCP-1 [7]): 100 fold

Aldh1a1 ASO: ASO targeting murine Aldh1a1, synthesized by Isis Pharmaceuticals; sequence AACACGACTATGCTGGTTAC (SEQ ID NO: 01) (listed as DNA, chemistry not given here)
glucose tolerance [8]: improved | insulin tolerance [8]: improved | Aldh1a1 expression in subcutaneous WAT (Aldh1a1; administered systemically): no effect | Aldh1a1 expression in visceral WAT (Aldh1a1; administered systemically): decrease | Aldh1a1 expression in SWAT, BAT, spleen, intestine, and skeletal muscle (Aldh1a1; [14]): remained unchanged | Aldh1a1 mRNA and protein levels in liver and GWAT (Aldh1a1; [14]): significantly decreased | GWAT mass [9]: decreased | weight gain in obese mice [9]: significantly limited | core body temperature on cold exposure ([10]; 4° C., 48 h): protected significantly | core body temperature at ambient temperature ([10]; 23° C.): did not differ | UCP-1 expression in GWAT (UCP-1 [11]): significantly increased | UCP-1 expression in SWAT or BAT (significant increase) (UCP-1 [11]): not

Cc1ccc(C2=CCC(C)(C)c3ccc(C#Cc4ccc(C(=O)O)cc4)cc32)cc1 [AGN193109, reference compound]
effect on Rald-mediated UCP-1 expression (UCP-1 [1]; [12]): completely inhibited

CC1=C(/C=C/C(C)=C\C=C\C(C)=C\C(=O)O)C(C)(C)CCC1 [9cisRA, reference compound]
PGC-1a recruitment to RXRa [5]: potently recruited

CC1=C(/C=C/C(C)=C/C=C/C(C)=C/C(=O)O)C(C)(C)CCC1 [ATRA, all-trans RA, reference compound]
activity of a canonical RARE luciferase reporter [4]: significantly increased
